Experimental data published in patent US20260272895A1, “METHODS AND KITS FOR DELIVERY OF COMPOUNDS INTO CELLS” (Yale University, priority 2023, published 2026).

Columns and labels:
[1] = system: NIH3T3 cells; test: Assessment of pharmacological effects in vitro in NIH3T3 cells (tubulin staining, multinucleated cells); type: cell-based
Source text: Confocal microscopy of the different treatment groups allowed us to visualize Hoechst dye-labeled nuclei to quantify the proportion of cells with multinucleated phenotype which is known to occur with Colchicine treatments.

[2] = system: brain cell types; test: In vivo two-photon imaging of mouse cortex after topical cortical administration of fluorophores; conditions: for Target: cell type taking up the compound in vivo (Table 1); for in vivo endothelial labeling/uptake: two-photon images of mouse cortex, route and concentration not stated
Experimental: Briefly, animals are anaesthetized via intraperitoneal injections of ketamine/xylazine or via inhaled isoflurane. A region of the skull (3×3 mm) is gently removed with a high-speed drill and the underlying dura is removed. A small glass coverslip is placed over the skull to allow long term optical access for in vivo imaging. Labeling with fluorescent dyes is performed either via intravenous injections or topically application to the cortical surface for 20 min prior to glass cover placement. After recovery, in vivo images are acquired using a two-photon microscope (Bruker Technologies) equipped with a multimodal (fixed wavelength 1040 nm and tunable wavelength) InSight X3 two-photon laser (Spectra Physics) and 20× water immersion objective (Zeiss 1.0N.A.). The two-photon laser is appropriately tuned to excite particular fluorescent dyes and proteins as needed. In selected cases, following in vivo imaging, mice will be sacrificed and perfused for follow up immunohistochemistry and high-resolution confocal imaging (Leica SP8) to further confirm colocalization of dyes and cells expressing particular transporters.
One-month-old wild-type mice were anesthetized using a ketamine/xylazine solution at doses of 100 mg/kg and 10 mg/kg, respectively. The fur around the skull area was shaved, and buprenex (0.1 mg per kg) and carprofen (5 mg per kg) were administered subcutaneously. Mice were kept on a heating pad at 37° C., and anesthesia was periodically monitored. The skin was treated with povidone-iodine solution, followed by cleaning with ethanol, and eye ointment was applied. A small skin section was excised to expose the skull. Thinning of the skull was performed in a circular area, followed by delicately lifting of the remaining skull without harm to the underlying brain. Within the circular region, the dura was gently removed using fine forceps, and a 4 mm cover glass was softly pressed onto the brain surface and affixed to the skull. Fluorescent dyes were applied either through intravenous injections or topically to the cortical surface for 20 minutes before placing the glass cover. A customized head bar was attached either by adhesive (for acute imaging) or permanently implanted (using dental cement, for chronic imaging) onto the skull. Mice were imaged under a two-photon microscope (Prairie Technologies) with a mode-locked MaiTai tunable laser (Spectra Physics). Imaging was performed with a 20× water immersion objective (Zeiss, 1.0NA). Images were captured at depths up to 300 μm from the pial surface using excitation wavelengths ranging from 750 to 950 nm as previously described. Mice undergoing chronic imaging received a recovery period on a heating pad post-surgery, and buprenex (0.1 mg per kg) and carprofen (5 mg per kg) were administered for 3 days.
Batches of 10 compounds were applied through the craniotomy to the cortical surface before placing a cover glass window. No additional washings were performed, and the cover glass was placed, allowing up to 3 hours of imaging of the cortical surface with a two-photon microscope. Following imaging, the data were analyzed to identify potential patterns of cell-specific labeling. […] Positive batches underwent three additional rounds of imaging, with each batch being sequentially split, until a single compound displaying cell-type-specific labeling was identified. As these compounds were not initially purified, the labeling may have resulted from fluorescent byproducts of synthesis. Consequently, large-scale synthesis, purification and characterization (FIGS. 29A-29D) of the identified compounds were conducted. The purified compounds were subsequently retested using in vivo imaging to confirm cell type specificity.
It was reasoned that the best strategy to identify fluorophores with specific affinity to certain cell types and transport mechanisms would be by direct screening in the intact in vivo brain microenvironment. […]

[3] = biological target: T1, SLCO1A2 (Homo sapiens, UniProt P46721); test: Compound uptake in HEK293 cells transfected with SLCO1A2; type: cell-based; parameters: FLAG; conditions: concentration not given
T1 sequence (P46721 1-670): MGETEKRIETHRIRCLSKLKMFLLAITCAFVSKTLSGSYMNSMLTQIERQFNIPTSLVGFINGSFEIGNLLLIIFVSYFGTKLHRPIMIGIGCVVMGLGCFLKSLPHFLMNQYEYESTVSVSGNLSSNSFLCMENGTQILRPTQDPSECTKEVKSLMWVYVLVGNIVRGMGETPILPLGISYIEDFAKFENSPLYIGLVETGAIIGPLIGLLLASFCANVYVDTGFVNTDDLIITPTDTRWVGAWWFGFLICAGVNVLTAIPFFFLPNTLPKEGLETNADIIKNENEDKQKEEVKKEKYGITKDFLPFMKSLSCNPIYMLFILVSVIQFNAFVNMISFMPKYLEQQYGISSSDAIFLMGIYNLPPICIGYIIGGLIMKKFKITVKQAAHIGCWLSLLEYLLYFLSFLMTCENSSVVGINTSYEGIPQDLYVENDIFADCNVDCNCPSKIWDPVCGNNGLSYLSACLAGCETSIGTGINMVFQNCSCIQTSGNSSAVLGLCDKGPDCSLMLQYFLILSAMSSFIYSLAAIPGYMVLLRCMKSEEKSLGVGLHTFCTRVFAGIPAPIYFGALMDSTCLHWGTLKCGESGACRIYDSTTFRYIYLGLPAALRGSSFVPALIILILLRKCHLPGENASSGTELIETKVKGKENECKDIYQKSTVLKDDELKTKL
Experimental: (§1) HEK293 cells are cultured and seeded at ~60% confluency in 24-well plates and are transiently transfected with 250 ng of a candidate transporter and 1 μL transfection reagent (JetPRIME). After 2 days, cells are washed and novel fluorescent probes at different concentrations are added to the transport medium and incubated at 37° C., for at least 30 minutes. To terminate the transport, cells are washed with PBS and fixed with 4% paraformaldehyde. The colocalization of probe uptake and cells expressing the transporters is investigated by immunostaining the transporter which has a fused FLAG tag, using anti-FLAG 488. Before confocal imaging, nuclei are labeled with Hoechst 33342 and cells are mounted and imaged on a Leica SP8 confocal microscope.
(§2) For in vitro experiments, HEK293 cells were cultured and seeded in 24-well plates, reaching approximately 60% confluency. For transient transfection, 250 ng of a candidate transporter plasmid and 1 μL of transfection reagent (JetPRIME) were added to the cells. After a 2-day incubation period, the cells were washed, and novel fluorescent probes were introduced into the transport medium at various concentrations. The cells were then incubated at 37° C., for a minimum of 30 minutes to allow for uptake. To stop the transport process, the cells were washed with PBS and fixed using 4% paraformaldehyde. Immunostaining of the transporter, which was fused with a FLAG tag, was performed using an anti-FLAG 488 antibody. Before confocal imaging, the cell nuclei were labeled with Hoechst 33342. Finally, the cells were mounted and imaged using a Leica SP8 confocal microscope.

[4] = biological target: T2, Slco1a4 (Mus musculus, UniProt Q9EP96); test: Compound uptake in HEK293 cells transfected with Slco1a4; type: cell-based; parameters: FLAG; expressed in transfected cells; conditions: concentration not given
T2 sequence (Q9EP96 1-670): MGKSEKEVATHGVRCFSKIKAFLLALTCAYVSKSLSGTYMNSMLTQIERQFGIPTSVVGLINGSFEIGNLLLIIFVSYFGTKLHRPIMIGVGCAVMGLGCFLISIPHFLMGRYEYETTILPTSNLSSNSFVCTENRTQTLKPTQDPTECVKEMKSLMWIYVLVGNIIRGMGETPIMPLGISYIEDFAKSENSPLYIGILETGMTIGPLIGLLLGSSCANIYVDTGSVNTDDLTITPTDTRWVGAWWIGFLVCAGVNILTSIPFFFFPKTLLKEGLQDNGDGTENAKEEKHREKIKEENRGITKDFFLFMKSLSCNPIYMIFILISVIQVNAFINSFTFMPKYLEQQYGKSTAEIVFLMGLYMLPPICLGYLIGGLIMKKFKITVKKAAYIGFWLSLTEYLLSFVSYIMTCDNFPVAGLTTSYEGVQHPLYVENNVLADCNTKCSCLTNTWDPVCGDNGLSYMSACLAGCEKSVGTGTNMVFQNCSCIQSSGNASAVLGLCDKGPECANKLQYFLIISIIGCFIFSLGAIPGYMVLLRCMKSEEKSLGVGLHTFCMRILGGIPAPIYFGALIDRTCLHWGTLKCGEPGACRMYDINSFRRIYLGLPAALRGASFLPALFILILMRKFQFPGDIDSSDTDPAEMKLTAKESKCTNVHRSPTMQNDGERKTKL
Experimental: as §1, §2

In the case of `COc1cc2c(c(OC)c1OC)-c1ccc(OC)c(=O)cc1[C@@H](NC(C)=O)CC2` [Colchicine], the alpha tubulin staining ([1]; 30 μM, NIH3T3 cells (FIG. 11A)) is reported as “equal disruption of the tubulin structure”, the alpha tubulin staining ([1]; 100 μM, NIH3T3 cells (FIG. 11B)) is reported as “equal disruption of the tubulin structure” and the phalloidin staining ([1]; 100 μM, NIH3T3 cells (FIG. 11D)) is reported as “disruption of the tubulin structure”. For the same compound, the phalloidin staining ([1]; NIH3T3 cells (FIG. 11C), concentration not given) was “equal disruption of the tubulin structure”, the “cell morphology / multinucleated cells” value ([1]; NIH3T3 cells (FIG. 17A)) was “changes in cell morphology and presence of multinucleated cells” and the “pattern of α-tubulin immunofluorescence” value ([1]; NIH3T3 cells, 12 hours, varying concentrations (FIG. 17A)) was “diffuse labeling pattern”.

With `O=S(=O)([O-])c1cc(S(=O)(=O)O)ccc1C1=c2cc3c4c(c2Oc2cc5ccc(Br)cc5cc21)CCC[N+]=4CCC3` [Compound 44, 2-(12-bromo-1,2,3,5,6,7-hexahydrobenzo[6,7]chromeno[2,3-f]pyrido[3,2,1-ij]quinolin-4-ium-9-yl)-5-sulfobenzenesulfonate] the Target [2] was “Endothelial”.

In the case of `O=S(=O)([O-])c1cc(S(=O)(=O)O)ccc1C1=c2cc3c4c(c2Oc2c1cc1ccccc1c2Br)CCC[N+]=4CCC3` [Compound 45, 2-(15-bromo-1,2,3,5,6,7-hexahydrobenzo[6,7]chromeno[2,3-f]pyrido[3,2,1-ij]quinolin-4-ium-9-yl)-5-sulfobenzenesulfonate], the Target [2] is reported as “Endothelial”.

`CCN(CC)c1ccc2c(-c3ccc(S(=O)(=O)O)cc3S(=O)(=O)[O-])c3ccc(N(CC)CC)cc3[o+]c2c1` [Compound 46, 2-(3,6-bis(diethylamino)xanthylium-9-yl)-5-sulfobenzenesulfonate] was tested, and the Target [2] was “Endothelial”.

`CC(=O)N(O)CCCCCNC(=O)CCC(=O)N(O)CCCCCNC(=O)CCC(=O)N(O)CCCCCNS(=O)(=O)c1ccc(-c2c3ccc(N(C)C)cc3[o+]c3cc(N(C)C)ccc23)c(S(=O)(=O)[O-])c1` [Compound 49, 2-(3,6-bis(dimethylamino)xanthylium-9-yl)-5-(N-(3,14,25-trihydroxy-2,10,13,21,24-pentaoxo-3,9,14,20,25-pentaazatriacontan-30-yl)sulfamoyl)benzenesulfonate] was tested, and the “in vivo endothelial labeling/uptake” value [2] was “robust endothelial cell body uptake”.

For `CCN(CC)c1ccc2c(-c3ccc(S(=O)(=O)NCCNC(=O)c4ccc(Nc5nc(N(C)[C@H]6CN(C(=O)CC#N)CC[C@H]6C)c6cc[nH]c6n5)cc4)cc3S(=O)(=O)[O-])c3ccc(=[N+](CC)CC)cc-3oc2c1` [Compound 53, 5-(N-(2-(4-((4-(((3R,4R)-1-(2-cyanoacetyl)-4-methylpiperidin-3-yl)(methyl)amino)-7H-pyrrolo[2,3-d]pyrimidin-2-yl)amino)benzamido)ethyl)sulfamoyl)-2-(6-(diethylamino)-3-(diethyliminio)-3H-xanthen-9-yl)benzenesulfonate], the “uptake in SLCO1A2 transfected HEK293 cells” value [3] was “is taken up” and the “uptake in Slco1a4 transfected HEK293 cells” value [4] was “is taken up”.

With `CN(C)c1ccc2c(-c3ccc(S(=O)(=O)Cl)cc3S(=O)(=O)[O-])c3ccc(N(C)C)cc3[o+]c2c1` [Compound 54, 2-(3,6-bis(dimethylamino)xanthylium-9-yl)-5-(chlorosulfonyl)benzenesulfonate] the “cellular labeling in cortex” value ([2]; topical cortical administration, 50 μM, wild type mice) was “robust endothelial specific uptake”.

`CN(C)c1ccc2c(-c3ccc(S(=O)(=O)NCCNC(=O)OC(C)(C)C)cc3S(=O)(=O)[O-])c3ccc(N(C)C)cc3[o+]c2c1` [Compound 55, 2-(3,6-bis(dimethylamino)xanthylium-9-yl)-5-(N-(2-((tert-butoxycarbonyl)amino)ethyl)sulfamoyl)benzenesulfonate] was tested, and the “in vivo endothelial labeling/uptake” value [2] was “robust endothelial cell body uptake”.

With `CCN(CC)c1ccc2c(-c3ccc(S(=O)(=O)NCCOCCOCCOCCOCCOCCOCCOCCOCCOCCOCCOCCOCCOCCOCCOCCOCCOCCOCCOCCOCCOCCOC)cc3S(=O)(=O)[O-])c3ccc(N(CC)CC)cc3[o+]c2c1` [Compound 56] the “in vivo endothelial labeling/uptake” value [2] was “highly specific in vivo endothelial labeling”.

`CCN(CC)c1ccc2c(-c3ccc(S(=O)(=O)NCCOCCOCCOCCOCCOCCOCCOCCOCCOCCOCCOCCOCCOCCOCCOCCOCCOCCOCCOCCOCCOCCOCCOCCOCCOCCOCCOCCOCCOCCOCCOCCOCCOCCOCCOCCOCCOCCOCCOCCOCCOCCOCCOCCOCCOC)cc3S(=O)(=O)[O-])c3ccc(N(CC)CC)cc3[o+]c2c1` [Compound 57] was tested, and the “in vivo endothelial labeling/uptake” value [2] was “highly specific in vivo endothelial labeling”.
